Tests used:
[1] = system: PAF-induced platelet aggregation (washed PRP); experiment: Activity to inhibit PAF in platelet aggregation (washed PRP); type: cell-based, rabbit; conditions: Oryctolagus cuniculus, test compound 3×10^-5 M, PAF 3×10^-7 M, 37° C., read-out: Inhibition rate
Procedure: Using an injection syringe containing a 3.15% solution of citric acid (in a ratio of 1 part per 9 parts of blood) as an anticoagulant, the blood was directly collected from a male rabbit. Then, at room temperature, the blood was centrifuged at 1,000 r.p.m. for 10 minutes to harvest a platelet rich plasma (PRP). This PRP was further centrifuged at 1,400 r.p.m. for 15 minutes to give a platelet pellet. The pellet was suspended in Ca^++ -free Tyrode solution (containing 0.25% of gelatin) to give a washed PRP. This washed PRP (250 μl) was stirred at 37° C. for 2 minutes, then 25 μl of a 0.2 to 0.5 mM Ca^++ solution was added, and the mixture was further stirred for 30 seconds. Then, the test compound was added to the above platelet preparation to a level of 3×10^-5 M. After stirring the mixture for 2 minutes, 3×10^-7 M of PAF was added. The degree of platelet aggregation was determined with a platelet aggregometer (Rika Denki). The activity of the test compound was estimated from the inhibition rate as compared with the maximum optical transmission (maximum aggregation) of control PRP by PAF.

[2] = system: PAF-induced respiratory (airway) stenosis; experiment: PAF-inhibiting activity in respiratory stenosis; type: in vivo, guinea pig (Hartley); conditions: 2 minutes before PAF 0.3 μg/kg i.v.
Procedure: Male and female Hartley strain guinea pigs weighing about 400 g were used. Under urethane anesthesia (1.5 g/kg, i.p.), each animal was immobilized in supine position and one shank of a tracheal cannula (of 4-shank type) was inserted into the airway, with two of the remaining three shanks being connected to a Harvard Apparatus rodent respirator and the remaining one shank to a bronchospasm transducer (Ugo-basile Model 7020). At an air volume of 5 to 7 ml per cycle, an air supply frequency of 70 times/min. and a lung loading pressure of 10 cm H2 O, the volume of overflowing air was recorded through the transducer on a rectigraph (Rectigraph-8S, Sanei Sokki K.K.). After gallamine triethodide (1 mg/kg, i.v.) treatment, […] of histamine 2HCl was intravenously administered to examine the response of the animal. When 0.3 μg/kg of PAF was intravenously administered to control group intravenously pretreated with physiological saline, a miximum airway stenosis was noted after 30 minutes and the amount of stenosis taking a complete stenosis as 100% was 72.8±4.3 (mean±S.D., for 6 cases). The compound of Production Example 2, when intravenously administered 2 minutes before at the dose levels of 0.3 and 1 mg/kg, suppressed the above response by PAF by 49% and 82%, respectively.

[3] = system: circulatory shock due to PAF; experiment: Inhibitory activity against circulatory shock due to PAF in anesthetized dogs; type: in vivo, mongrel dogs; conditions: PAF 1.0 μg/kg i.v. after pretreatment 10 mg/kg i.v.
Procedure: Male and female mongrel dogs weighing 9 to 13 kg were used. Under pentobarital sodium ([…], i.v.) anesthesia and supportive respiration, a thoracotomy was performed at the left fourth interspace. The origin of the left coronary circumflex and the aortic arch were released, an electromagnetic probe was attached to each, and the coronary blood flow (CoF) and cardiac output (CO) were measured. Moreover, a polyethylene cannula was inserted from the apex of the heart into the left ventricle and the left ventricular pressure (LVP) was measured by means of a pressure transducer. In addition, its first-order differential dp/dt was determined by way of a differential circuit. The mean blood pressure (MBP) was continuously recorded on an ink-writing polygraph through a pressure transducer via a cannula inserted into the right femoral artery and the heart rate (HR) was similarly recorded via a tachometer driven by mean blood pressure pulse waves. PAF and the compound of Production Example 2 were respectively dissolved in physiological saline and administered via a cannula into the left femoral vein. After 1.0 μg/kg of PAF was intravenously administered and the respective parameters recovered to normal, the compound of Production Example 2 (10 mg/kg) was intravenously administered. After 10 minutes, 1.0 μg/kg of PAF was intravenously administered to estimate the anti-PAF activity of the compound of Production Example 2. All values are in percents relative to the values prior to PAF administration.

[4] = system: endotoxin-induced blood pressure fall; experiment: Anti-endotoxin shock activity in rats; type: in vivo, rat (Sprague-Dawley); conditions: 10 mg/kg i.v., 10 minutes before endotoxin 15 mg/kg i.v., mean ± SD
Procedure: Male Sprague-Dawley rats weighing 500 to 600 g were used under pentobarbital sodium (50 mg/kg, i.v.) anesthesia. A cannula was inserted into the femoral artery and secured in position for measurement of blood pressure and another cannula into the femoral vein for administration of a solution of the drug. The blood pressure was measured via a pressure transducer and recorded on a polygraph. For a control group, a suspension of endotoxin (Lipopolysaccharide W. E. coli 0111: B4, Wako Pure Chemical) in physiological saline was administered into the femoral vein and the maximum hypotensive response occurring 3 to 5 minutes after administration was recorded. On the other hand, for the administration of 3-(N-n-octadecylcarbamoyloxy)-2-methoxypropyl 2-thiazolioethyl phosphate [hereinafter, compound (IA)], the compound (IA) was dissolved in physiological saline and administered into the femoral vein in a dose of 10 mg/kg. Ten (10) minutes after the administration of (IA), endotoxin was similarly administered and the maximum hypotensive response was recorded. The anti-endotoxin shock activity of the test compound was estimated from the difference in blood pressure response between the (IA) treatment group and the non-(IA)treatment group.

endotoxin-induced death = experiment: Preventive effect against endotoxin-induced death in mice; type: in vivo, mouse (ICR-Jcl); conditions: 10 mg/kg i.v. + endotoxin 15 mg/kg i.v.
Procedure: Male mice of ICR-Jcl strain, aged 5 weeks and with a body weight of about 30 g, were used in groups of 7 individuals. For the control group, 15 mg/kg of endotoxin was suspended in 0.1 ml/10 g of physiological saline and injected into the tail vein. For the compound (IA) treatment group, 10 mg/kg of the compound (IA) and 15 mg/kg of endotoxin were suspended in 0.1 ml/10 g of physiological saline and similarly injected into the tail vein. The mice were examined for death up to 20 hours after the treatment.

Compound: CCCCCCCCCCCCCCCCCCNC(=O)OCC(COP(=O)([O-])OCC[n+]1ccccc1)OC (centres unmarked) [Production Example 1, 3-(N-Octadecylcarbamoyloxy)-2-methoxypropyl 2-pyridinioethyl phosphate]
- inhibition at 30 µM [1]: 95%

Compound: CCCCCCCCCCCCCCCCCCNC(=O)OCC(COP(=O)([O-])OCC[n+]1ccsc1)OC (centres unmarked) [Production Example 2, 3-(N-Octadecylcarbamoyloxy)-2-methoxypropyl 2-thiazolioethyl phosphate]
- inhibition at 30 µM [1]: 100%
- suppression of the airway stenosis response by PAF ([2]; 0.3 mg/kg i.v.): 49%
- suppression of the airway stenosis response by PAF ([2]; 1 mg/kg i.v.): 82%
- CO (percent of value prior to PAF) ([3]; 0.5 min): 107 ± 4%
- CoF (percent of value prior to PAF) ([3]; 0.5 min): 109 ± 4%
- DBP (percent of value prior to PAF) ([3]; 0.5 min): 78 ± 5%
- HR (percent of value prior to PAF) ([3]; 0.5 min): 109 ± 2%
- LVP (percent of value prior to PAF) ([3]; 0.5 min): 92 ± 3%
- MBP (percent of value prior to PAF) ([3]; 0.5 min): 87 ± 7%
- SBP (percent of value prior to PAF) ([3]; 0.5 min): 90 ± 3%
- max dp/dt (row head is a drawing; percent of value prior to PAF) ([3]; 0.5 min): 94 ± 7%
- CO (percent of value prior to PAF) ([3]; 1 min): 99 ± 2%
- CoF (percent of value prior to PAF) ([3]; 1 min): 103 ± 3%
- DBP (percent of value prior to PAF) ([3]; 1 min): 99 ± 1%
- HR (percent of value prior to PAF) ([3]; 1 min): 105 ± 1%
- LVP (percent of value prior to PAF) ([3]; 1 min): 97 ± 3%
- MBP (percent of value prior to PAF) ([3]; 1 min): 99 ± 1%
- SBP (percent of value prior to PAF) ([3]; 1 min): 99 ± 1%
- max dp/dt (row head is a drawing; percent of value prior to PAF) ([3]; 1 min): 98 ± 2%
- CO (percent of value prior to PAF) ([3]; 5 min): 103 ± 5%
- CoF (percent of value prior to PAF) ([3]; 5 min): 97 ± 3%
- DBP (percent of value prior to PAF) ([3]; 5 min): 101 ± 2%
- HR (percent of value prior to PAF) ([3]; 5 min): 103 ± 3%
- LVP (percent of value prior to PAF) ([3]; 5 min): 100 ± 1%
- MBP (percent of value prior to PAF) ([3]; 5 min): 101 ± 2%
- SBP (percent of value prior to PAF) ([3]; 5 min): 102 ± 3%
- max dp/dt (row head is a drawing; percent of value prior to PAF) ([3]; 5 min): 102 ± 3%
- Max. hypotensive response after drug administration (-ΔmmHg) ([4]; listed as Compound (IA)): 15 ± 3 mmHg
- Max. hypotensive response after drug administration (-ΔmmHg) ([4]; listed as compound (IA)): 15 mmHg
- Mortality within 20 hrs. (endotoxin-induced death): 14%
- No. of deaths within 20 hrs. after drug administration, Deaths/survivals (endotoxin-induced death): 1/7

Compound: CCCCCCCCCCNC(=O)OCC(COP(=O)([O-])OCC[n+]1ccsc1)OC (centres unmarked) [Production Example 3, 3-(N-Decylcarbamoyloxy)-2-methoxypropyl 2-thiazolioethyl phosphate]
- inhibition at 30 µM [1]: 12%

Compound: CCCCCCCCCCCCCCCCCCNC(=O)OCC(COP(=O)([O-])OCC[n+]1csc(CCO)c1C)OC (centres unmarked) [Production Example 4, 3-(N-octadecylcarbamoyloxy)-2-methoxypropyl 2-(4-methyl-5-hydroxyethyl)thiazolioethyl phosphate]
- inhibition at 30 µM [1]: 33%

Compound: CCCCCCCCCCCCCCCCCCNC(=O)OCC(COP(=O)([O-])OCC[n+]1ccc2ccccc2c1)OC (centres unmarked) [Production Example 5, 3-(N-Octadecylcarbamoyloxy)-2-methoxypropyl 2-isoquinolinioethyl phosphate]
- inhibition at 30 µM [1]: 37%

Compound: CCCCCCCCCCCCCCCCCCNC(=O)OCC(COP(=O)([O-])OCC[n+]1ccsc1)OCc1ccccc1 (centres unmarked) [Production Example 6, 3-(N-Octadecylcarbamoyloxy)-2-benzyloxypropyl 2-thiazolioethyl phosphate]
- inhibition at 30 µM [1]: 79%

Compound: CCCCCCCCCCCCCCCCCCNC(=O)OCC(COP(=O)([O-])OCC[n+]1ccccc1)OCc1ccccc1 (centres unmarked) [Production Example 7, 3-(N-Octadecylcarbamoyloxy)-2-benzyloxypropyl 2-pyridinioethyl phosphate]
- inhibition at 30 µM [1]: 19%

Compound: CCCCCCCCCCCCCCCCCCCCCCNC(=O)OCC(COP(=O)([O-])OCC[n+]1ccsc1)OC (centres unmarked) [Production Example 8, 3-(N-Docosylcarbamoyloxy)-2-methoxypropyl 2-thiazolioethyl phosphate]
- inhibition at 30 µM [1]: 24%

Compound: CCCCCCCCCCCCCCCNC(=O)OCC(COP(=O)([O-])OCC[n+]1ccsc1)OC (centres unmarked) [Production Example 10, 2-Methoxy-3-pentadecylcarbamoyloxypropyl 2-thiazolioethyl phosphate]
- inhibition at 30 µM [1]: 100%

Compound: CCCCCCCCCCCCCCCCNC(=O)OCC(COP(=O)([O-])OCC[n+]1ccsc1)OC (centres unmarked) [Production Example 11, 2-Methoxy-3-hexadecylcarbamoyloxypropyl 2-thiazolioethyl phosphate]
- inhibition at 30 µM [1]: 100%

Compound: CCCCCCCCCCCCCCCCCNC(=O)OCC(COP(=O)([O-])OCC[n+]1ccsc1)OC (centres unmarked) [Production Example 12, 2-methoxy-3-heptadecylcarbamoyloxypropyl 2-thiazolioethyl phosphate]
- inhibition at 30 µM [1]: 100%

Source: patent US4582824A, “Method for inhibiting activities of platelet activating factor” (Takeda Chemical Industries, Ltd., priority 1983, dated 1986)
